Results: ChEMBL document CHEMBL3244013, “Central nervous system activity of a novel class of annelated 1,4-benzodiazepines, aminomethylene-2,4-dihydro-1H-imidazo[1,2-a][1,4]benzodiazepin-1-ones” (J Med Chem, 1977)

Columns and labels:
Mus musculus [1] = assay: Antianxiety activity in po dosed CD-1 mouse assessed as inhibition of foot shock-induced aggression after 30 mins relative to control; format: functional; conditions: CD-1, po, 0.5 h
Mus musculus [2] = assay: Anticonvulsant activity in po dosed CD-1 mouse assessed as protection against maximal electroshock-induced convulsion; format: functional; conditions: CD-1, po
Mus musculus [3] = assay: Anticonvulsant activity in po dosed CD-1 mouse assessed as protection against pentylenetetrazole-induced convulsion; format: functional; conditions: CD-1, po
Mus musculus [4] = assay: Anticonvulsant activity in po dosed CD-1 mouse assessed as protection against strychnine-induced convulsion after 30 mins; format: functional; conditions: CD-1, po, 0.5 h
Mus musculus [5] = assay: Potentiation of hexobarbital-induced sedative effect in po dosed CD-1 mouse assessed as loss of righting reflex after 30 secs; format: functional; conditions: CD-1, po
Mus musculus [6] = assay: Potentiation of chlorprothixene-induced sedative effect in po dosed CD-1 mouse assessed as loss of righting reflex; format: functional; conditions: CD-1, po
Mus musculus [7] = assay: Induction of muscle relaxation in po dosed CD-1 mouse after 30 mins by rotary drum test; format: functional; conditions: CD-1, po, 0.5 h
Mus musculus [8] = assay: Acute toxicity in po dosed CD-1 mouse assessed as mortality after 24 hrs; format: organism-based; conditions: in vivo

Compound | ED50 (Mus musculus [1]) [mg/kg] | ED50 (Mus musculus [2]) [mg/kg] | ED50 (Mus musculus [3]) [mg/kg] | ED50 (Mus musculus [4]) [mg/kg] | ED50 (Mus musculus [5]) [mg/kg] | ED50 (Mus musculus [6]) [mg/kg] | ED50 (Mus musculus [7]) [mg/kg] | ED50 (Mus musculus [8]) [mg/kg]
CN1CCN(/C=C2\N=C3CN=C(c4ccccc4F)c4cc(Cl)ccc4N3C2=O)CC1 | 0.34 | 0.27 | 0.115 | 1.25 | 0.21 | 1.35 | 2.6 | > 1000
N/C=C1\N=C2CN=C(c3ccccc3)c3cc(Cl)ccc3N2C1=O | – | > 50 | 7.1 | > 50 | 1.65 | 4.3 | > 50 | > 1000
CN/C=C1\N=C2CN=C(c3ccccc3)c3cc(Cl)ccc3N2C1=O | 5.3 | – | – | > 50 | > 50 | > 50 | – | > 1000
CCN/C=C1\N=C2CN=C(c3ccccc3)c3cc(Cl)ccc3N2C1=O | 1.45 | 10 | 4 | > 50 | 7.2 | > 10 | 1.8 | > 1000
CCCN/C=C1\NC2CN=C(c3ccccc3)c3cc(Cl)ccc3N2C1=O (stereo unspecified) | 0.92 | 4 | 1.55 | > 50 | 3.9 | 2.6 | 2.8 | > 1000
CCCCN/C=C1\N=C2CN=C(c3ccccc3)c3cc(Cl)ccc3N2C1=O | 3.35 | 12.5 | 1.15 | 17 | 0.66 | 1.8 | 24 | > 1000
CC(C)(C)N/C=C1\N=C2CN=C(c3ccccc3)c3cc(Cl)ccc3N2C1=O | 1.1 | 19 | 3.25 | > 50 | 5 | 14 | 14.5 | > 1000
O=C1/C(=C/NC2CCCCC2)N=C2CN=C(c3ccccc3)c3cc(Cl)ccc3N12 | 1.4 | 8.5 | 2.35 | 15 | 8.3 | 6.2 | – | > 1000
O=C1/C(=C/NCCO)N=C2CN=C(c3ccccc3)c3cc(Cl)ccc3N12 | 1.5 | 9.5 | – | 16 | 3.6 | – | 2.6 | > 1000
CCN(CC)CCN/C=C1\N=C2CN=C(c3ccccc3)c3cc(Cl)ccc3N2C1=O | > 20 | > 50 | 16 | > 50 | > 50 | > 50 | > 50 | > 1000
CN(C)/C=C1\N=C2CN=C(c3ccccc3)c3cc(Cl)ccc3N2C1=O | 14 | 42 | 5 | > 50 | > 50 | > 50 | > 50 | > 1000
CN(C)CCN(C)/C=C1\N=C2CN=C(c3ccccc3)c3cc(Cl)ccc3N2C1=O | – | – | – | > 50 | > 50 | > 50 | > 50 | > 1000
CCN/C=C1\N=C2CN=C(c3ccccc3Cl)c3cc(Cl)ccc3N2C1=O | 1 | 18 | 0.39 | 25 | 0.27 | 9.6 | 11.5 | > 1000
CCCN/C=C1\N=C2CN=C(c3ccccc3Cl)c3cc(Cl)ccc3N2C1=O | 2.4 | > 30 | 1 | > 25 | 0.06 | 5.6 | 8 | > 1000
O=C1/C(=C/N2CCOCC2)N=C2CN=C(c3ccccc3)c3cc(Cl)ccc3N12 | 2.4 | 7 | 2.3 | > 50 | > 50 | 20.3 | 29 | > 1000
O=C1/C(=C/N2CCNCC2)N=C2CN=C(c3ccccc3)c3cc(Cl)ccc3N12 | > 20 | > 50 | 1.95 | > 50 | 7.5 | 23 | > 50 | > 1000
CN1CCN(/C=C2\N=C3CN=C(c4ccccc4)c4cc(Cl)ccc4N3C2=O)CC1 | 2.65 | 2.1 | 0.9 | 7.1 | 4.9 | 4.6 | 4.2 | > 1000
CCN1CCN(/C=C2\N=C3CN=C(c4ccccc4)c4cc(Cl)ccc4N3C2=O)CC1 | 0.94 | 2.2 | 0.48 | 5.5 | 1.1 | 5 | 1.6 | > 1000

Compound | ED50 (Mus musculus [1]) [mg/kg] | ED50 (Mus musculus [2]) [mg/kg] | ED50 (Mus musculus [3]) [mg/kg] | ED50 (Mus musculus [4]) [mg/kg] | ED50 (Mus musculus [5]) [mg/kg] | ED50 (Mus musculus [6]) [mg/kg] | ED50 (Mus musculus [7]) [mg/kg] | ED50 (Mus musculus [8]) [mg/kg]
CCCN1CCN(/C=C2\N=C3CN=C(c4ccccc4)c4cc(Cl)ccc4N3C2=O)CC1 | 1.3 | 2.7 | 1 | 6.4 | 3.6 | 3.2 | 1.1 | > 1000
CCCCN1CCN(/C=C2\N=C3CN=C(c4ccccc4)c4cc(Cl)ccc4N3C2=O)CC1 | 1.5 | 20.5 | 2 | 24 | 44 | > 50 | 9 | > 1000
C=CCN1CCN(/C=C2\N=C3CN=C(c4ccccc4)c4cc(Cl)ccc4N3C2=O)CC1 | 2.3 | 13.5 | 21 | > 50 | 25 | 18 | 13 | > 1000
O=C1/C(=C/N2CCN(CC3CC3)CC2)N=C2CN=C(c3ccccc3)c3cc(Cl)ccc3N12 | 4.65 | 10.5 | 3.5 | 30 | 30 | 25 | 6.2 | > 1000
CC(C)N1CCN(/C=C2\N=C3CN=C(c4ccccc4)c4cc(Cl)ccc4N3C2=O)CC1 | 2.1 | 7 | 1.25 | 5.8 | 6.6 | 6.4 | 12 | > 1000
O=C1/C(=C/N2CCN(c3ccccc3)CC2)N=C2CN=C(c3ccccc3)c3cc(Cl)ccc3N12 | > 50 | > 50 | 26 | > 50 | > 50 | > 50 | > 50 | > 1000
O=CN1CCN(/C=C2\N=C3CN=C(c4ccccc4)c4cc(Cl)ccc4N3C2=O)CC1 | > 20 | – | – | – | – | > 50 | – | > 1000
O=C1/C(=C/N2CCCCC2)N=C2CN=C(c3ccccc3)c3cc(Cl)ccc3N12 | > 20 | > 50 | 16 | > 50 | 1 | > 50 | – | > 1000
O=C1/C(=C/N2CCSCC2)N=C2CN=C(c3ccccc3)c3cc(Cl)ccc3N12 | > 20 | > 50 | > 50 | > 50 | > 50 | > 50 | > 50 | > 1000
CN1CCN(/C=C2\N=C3CN=C(c4ccccc4)c4cc([N+](=O)[O-])ccc4N3C2=O)CC1 | 2.2 | 4.2 | 0.92 | 6.6 | 3.6 | 4.5 | 8.6 | > 1000
CN1CCN(/C=C2\N=C3CN=C(c4ccccc4Cl)c4cc(Cl)ccc4N3C2=O)CC1 | 0.2 | 2.1 | 0.165 | 1.8 | 0.074 | 1.6 | 0.78 | > 1000
CN1CCN(/C=C2\N=C3CN=C(c4ccccc4F)c4cc([N+](=O)[O-])ccc4N3C2=O)CC1 | 0.26 | 1.2 | 0.13 | 0.46 | 0.8 | 1.6 | 1.5 | > 1000
CCN1CCN(/C=C2\N=C3CN=C(c4ccccc4Cl)c4cc(Cl)ccc4N3C2=O)CC1 | 0.5 | 2.2 | 0.087 | 2.3 | 2.5 | 1.2 | 0.56 | > 1000
CCN1CCN(/C=C2\N=C3CN=C(c4ccccc4F)c4cc(Cl)ccc4N3C2=O)CC1 | 0.48 | 1.55 | 0.155 | 1.6 | 2.8 | 2.35 | 0.7 | > 1000
CN1CCCC/C1=C1\N=C2CN=C(c3ccccc3)c3cc(Cl)ccc3N2C1=O | 20 | > 50 | – | – | – | – | > 50 | > 1000
O=C1/C(=C/c2ccccc2)N=C2CN=C(c3ccccc3)c3cc(Cl)ccc3N12 | – | – | > 50 | > 50 | > 50 | – | – | > 1000
CN(C)c1ccc(/C=C2\N=C3CN=C(c4ccccc4)c4cc(Cl)ccc4N3C2=O)cc1 | > 20 | – | > 50 | > 50 | > 50 | – | > 50 | > 1000
CNC1=Nc2ccc(Cl)cc2C(c2ccccc2)=[N+]([O-])C1 [CHLORDIAZEPOXIDE] | 7 | 8 | 1.9 | 5 | 64 | 4 | 6.8 | –
